Counter-ions that a name gives are not always drawn. Like-named read-outs stand apart in the source and are kept apart here.
Legend:
male ddy mice [1] = assay: Lipolytic effect in mice (serum free fatty acid); format: in vivo
Method: Blood Sugar Decreasing Effect and Lipolytic Effect Male ddy mice (supplied from the firm Nippon Charles Liver) of 6 weeks age were subcutaneously administered with glucose in a dose of 2 g/kg. The animals were also treated with either one of test compounds via oral or intraperitoneal administration in a dose of 0.1 ml per 10 grams of body weight. After one hour, blood sample was taken from abdominal aorta, from which serum was separated and served as the sample. Lipolytic Effect Amount of free fatty acid in the samples was determined using NEFA HA TEST WAKO (of the firm Wako Pure Chemical). […] Therefore, it was shown that they are useful as medicament for preventive and therapeutic treatment of hyperlipemia and for therapeutic treatment of obesity.

male ddy mice [2] = assay: Blood sugar decreasing effect in glucose-loaded mice; format: in vivo; settings: glucose 2 g/kg s.c., after one hour
Method: Blood Sugar Decreasing Effect and Lipolytic Effect Male ddy mice (supplied from the firm Nippon Charles Liver) of 6 weeks age were subcutaneously administered with glucose in a dose of 2 g/kg. The animals were also treated with either one of test compounds via oral or intraperitoneal administration in a dose of 0.1 ml per 10 grams of body weight. After one hour, blood sample was taken from abdominal aorta, from which serum was separated and served as the sample. Blood Sugar Decreasing Effect The samples prepared as above were analyzed for the serum glucose concentration by Auto analyzer (SUPER Z of the firm M. C. Medical). For the analyzer kit, Glucose II HA TEST WAKO (of the firm Wako Pure Chemical) was used. % decrease in blood sugar=[(A−B)/(A−C)]×100 in which A represents the glucose concentration upon being loaded with glucose, B represents the glucose concentration after administration of the compound and C is the usual level of the glucose concentration. […] Therefore, it was proven that the compound according to the present invention is effective as a medicament for therapeutic and preventive treatment of diabetes.

human β3 = molecular target: T1, human β3 (Homo sapiens, UniProt P13945); assay: Human β3-agonist activity (cAMP in CHO cells transfected with human β3 gene); format: cell-based; settings: for Emax: CHO, read-out: Intrinsic activity (%)
T1 construct: And then full length of human β3 gene was cloned using this fragment as a probe; expressed in transfected cells; host or cells: CHO cells (Chinese hamster ovary), pcDNA3 vector

canine adipocytes = assay: Lipolytic activity in canine fatty cell (glycerol release); format: cell-based, dogs; settings: Canis lupus familiaris, Adipocyte; for EC50: 1 h, glycerol release, canine adipocytes, read-out: ED50 (the source's name); for Emax: read-out: Intrinsic activity (%)
Method: Lipolytic Activity in Canine Fatty Cell
Adipose tissues in the omentum were collected from dogs and minced and washed. Krebs-Ringer buffer solution containing 1 mg/ml Collagenase (Sigma) and 1% of bovine serum albumin was added in an amount of 3 ml per one gram of the tissue. These cells were then incubated at 37° C. for 30 minutes with shaking and then undigested tissues were removed with a nylon filter. The resulting adipocytes were washed four times with Krebs-Ringer buffer, and then the concentration of cells was diluted to 2×10^5/ml with Krebs-Ringer buffer solution containing 4% of bovine serum albumin. These cells were transferred to Eppendorf tubes each in an amount of 300 μl.
Each 300 μl of a culture medium containing the test compounds were added to these tubes and was held at 37° C. for 1 hour whith shaking. Stimulation was stoped by cooling with ice. After centrifugation, the adipocytes were taken off with an aspirator, whereupon the glycerol was determined using F-KIT GLTCEROL (Behringer-Manheim).

male ddy mice [3] = assay: Toxicity test in mice; format: in vivo; settings: dose of 100 mg/kg; 8 mice
Method: The compounds of Examples 7 and 31 were administered to 6 week age male ddy mice (supplied from the firm Nippon Charles Liver) at a dose of 100 mg/kg.

T1 sequence (P13945 whole entry, the tested form may be a part): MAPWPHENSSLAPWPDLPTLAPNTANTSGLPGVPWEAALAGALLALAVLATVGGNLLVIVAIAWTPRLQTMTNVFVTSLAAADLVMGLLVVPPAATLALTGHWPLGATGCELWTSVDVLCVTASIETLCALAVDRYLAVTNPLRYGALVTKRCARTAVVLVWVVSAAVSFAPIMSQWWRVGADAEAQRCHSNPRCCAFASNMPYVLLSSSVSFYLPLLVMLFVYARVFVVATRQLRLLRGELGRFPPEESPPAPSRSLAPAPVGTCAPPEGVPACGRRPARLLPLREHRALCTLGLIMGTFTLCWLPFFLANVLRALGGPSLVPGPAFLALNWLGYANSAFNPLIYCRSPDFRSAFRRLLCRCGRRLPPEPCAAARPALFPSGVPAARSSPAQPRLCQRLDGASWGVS

Row | SMILES | increase of free fatty acid (male ddy mice [1]; intraperitoneal administration of 10 mg/kg) [%] | % decrease in blood sugar (male ddy mice [2]; intraperitoneal administration) [%] | EC50 (human β3) [µM] | Emax (human β3) [%] | EC50 (canine adipocytes) [µM] | Emax (canine adipocytes) [%] | increase of free fatty acid (male ddy mice [1]; oral administration of 100 mg/kg) [%] | fatal cases (male ddy mice [3]) | increase of free fatty acid (male ddy mice [1]; oral administration of 30 mg/kg) [%] | % decrease in blood sugar (male ddy mice [2]; oral administration) [%] | EC50 (human β3; cAMP, CHO cells with human β3, read-out: ED50 (the source's name)) [µM]
1 | CS(=O)(=O)Nc1cc(C(O)CNCCOc2ccc3c(c2)[nH]c2ccccc23)ccc1O.Cl (racemic) [Example 2, (±)-N-[5-[2-[2-(9H-Carbazol-2-yloxy)ethylamino]-1-hydroxyethyl]-2-hydroxyphenyl]methanesulfonamide Hydrochloride] | 67.2 | 77.1 | 0.00018 | 120 | 0.056 | 82 | – | – | – | – | –
2 | CS(=O)(=O)Nc1cccc(C(O)CNCCOc2ccc3c(c2)[nH]c2ccccc23)c1.Cl (racemic) [Example 7, (±)-N-[3-[2-[2-(9H-Carbazol-2-yloxy)ethylamino]-1-hydroxyethyl]phenyl]methanesulfonamide Hydrochloride] | – | – | 0.018 | 95 | 1.2 | 90 | 47.7 | no fatal case | – | – | –
3 | OC(CNCCOc1ccc2c(c1)[nH]c1ccccc12)c1ccccc1 (racemic) [Example 31, (±)-2-N-[2-(9H-Carbazol-2-yloxy)ethyl]amino]-1-phenyethanol Hydrochloride] | – | – | – | 100 | 7.7 | 103 | – | no fatal case | 32.4 | 34.5 | 2.2

Source: patent US6545053B1, “Tricyclic compounds and drug compositions containing same” (Asahi Kasei Kogyo Kabushiki Kaisha, priority 1996, dated 2003)
